In patent US20240317752A1, “6-SUBSTITUTED-9H-PURINE DERIVATIVES AND RELATED USES” (Black Diamond Therapeutics, Inc., priority 2021, published 2024):

These compounds were tested against T1, BaF3 BRAF-KIAA1549 fusion cells (Homo sapiens, UniProt P15056) (assay: BaF3 BRAF-KIAA1549 fusion cell proliferation assay (CellTiterGlo)). Settings: 96 hours incubation, potency code.
T1 construct: The BRAF-KIAA1549 fusion mutant was subcloned into pMXs-IRES-Blasticidin (RTV-016, Cell Biolabs, San Diego, CA); fused on or other part: Q9HCM3 (UPF0606 protein KIAA1549)
T1 sequence (P15056 whole entry, change not shown, the tested form may be a part): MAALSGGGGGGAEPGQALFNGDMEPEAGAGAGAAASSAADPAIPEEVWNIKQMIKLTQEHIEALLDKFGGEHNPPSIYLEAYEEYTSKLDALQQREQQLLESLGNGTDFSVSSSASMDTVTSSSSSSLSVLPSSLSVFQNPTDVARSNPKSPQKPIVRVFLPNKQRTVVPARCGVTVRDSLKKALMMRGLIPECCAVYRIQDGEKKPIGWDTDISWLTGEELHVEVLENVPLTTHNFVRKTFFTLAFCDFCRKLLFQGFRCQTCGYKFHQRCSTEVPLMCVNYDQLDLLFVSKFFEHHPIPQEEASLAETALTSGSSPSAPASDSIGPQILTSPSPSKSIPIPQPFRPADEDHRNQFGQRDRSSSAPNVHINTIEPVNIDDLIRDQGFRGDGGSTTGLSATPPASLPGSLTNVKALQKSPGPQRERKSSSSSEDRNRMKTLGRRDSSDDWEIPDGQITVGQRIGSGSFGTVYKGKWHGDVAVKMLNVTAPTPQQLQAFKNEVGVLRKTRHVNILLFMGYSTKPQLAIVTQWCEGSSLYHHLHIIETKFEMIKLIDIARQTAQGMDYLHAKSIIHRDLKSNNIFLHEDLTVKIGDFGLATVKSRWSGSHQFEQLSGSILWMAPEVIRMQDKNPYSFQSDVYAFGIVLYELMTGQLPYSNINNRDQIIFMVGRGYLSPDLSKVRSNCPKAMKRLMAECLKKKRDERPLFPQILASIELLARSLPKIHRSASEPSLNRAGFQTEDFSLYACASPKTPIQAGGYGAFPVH
Format: cell-based
Outline: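 BaF3 cells stably transduced with a BRAF-KIAA1549 fusion, blasticidin-selected and growing without IL-3, were treated with compound for 96 h in RPMI/10% heat-inactivated FBS. Viability read as ATP content by CellTiterGlo luminescence, normalised to DMSO-treated cells. IC50 by Levenberg-Marquardt fit.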
With `Cc1ccc(NC(=O)CC2CCCNCC2)cc1Nc1ncccc1-c1ncnc2[nH]cnc12` (centres unmarked) [IA-131, N-(3-(3-(9H-purin-6-yl)pyridin-2-ylamino)-4-methylphenyl)-2-(azepan-4-yl)acetamide] the GI50 was ≥ 500 nM.
`COc1nc2c(-c3cccnc3Nc3cc(NC(=O)c4cc(C(F)(F)F)ccn4)ccc3C)ncnc2[nH]1` [IA-123, N-(3-(3-(8-methoxy-9H-purin-6-yl)pyridin-2-ylamino)-4-methylphenyl)-4-(trifluoromethyl)picolinamide] was tested, and the GI50 was 20 to 100 nM.
For `Cc1ccc(NC(=O)c2cc(C(F)(F)F)ccn2)cc1Nc1ncccc1-c1nc(F)nc2[nH]cnc12` [IA-151, N-(3-(3-(2-fluoro-9H-purin-6-yl)pyridin-2-ylamino)-4-methylphenyl)-4-(trifluoromethyl)picolinamide], the GI50 was ≥ 500 nM.
In the case of `Cc1c(F)cc(NC(=O)c2ccnc(C3(C#N)CC3)c2)cc1Nc1ncccc1-c1ncnc2[nH]cnc12` [Compound I-62, N-(3-((3-(9H-purin-6-yl)pyridin-2-yl)amino)-5-fluoro-4-methylphenyl)-2-(1-cyanocyclopropyl)isonicotinamide], the GI50 is reported as < 20 nM.
`Cc1c(F)cc(C(=O)Nc2cccc(C3(C#N)CC3)c2)cc1Nc1ncccc1-c1ncnc2[nH]cnc12` [Compound I-60, 3-((3-(9H-purin-6-yl)pyridin-2-yl)amino)-N-(3-(1-cyanocyclopropyl)phenyl)-5-fluoro-4-methylbenzamide] was tested, and the GI50 was < 20 nM.
For `Cc1ccc(NC(=O)c2cc(C(F)(F)F)ccn2)cc1Nc1nccnc1-c1ncnc2[nH]cnc12` [IA-120, N-(3-(3-(9H-purin-6-yl)pyrazin-2-ylamino)-4-methylphenyl)-4-(trifluoromethyl)picolinamide], the GI50 was 20 to 100 nM.
In the case of `Cc1nc2c(-c3cccnc3Nc3cc(NC(=O)c4cc(C(F)(F)F)c(OCCO)cn4)ccc3C)ncnc2[nH]1` [IA-129, 5-(2-hydroxyethoxy)-N-(4-methyl-3-((3-(8-methyl-9H-purin-6-yl)pyridin-2-yl)amino)phenyl)-4-(trifluoromethyl)picolinamide], the GI50 is reported as < 20 nM.
`Cc1ccc(NC(=O)C[C@@H]2CCN[C@H](C(F)(F)F)C2)cc1Nc1ncccc1-c1ncnc2[nH]cnc12` (single isomer, unassigned) [IA-142] showed a GI50 of 100 to 500 nM.
With `Cc1ccc(NC(=O)C[C@H]2CCC[C@H](C(F)(F)F)C2)cc1Nc1ncccc1-c1ncnc2[nH]cnc12` (single isomer, unassigned) [IA-139] the GI50 was < 20 nM.
`Cc1ccc(NC(=O)CN2CCC[C@H](C(F)(F)F)C2)cc1Nc1ncccc1-c1ncnc2[nH]cnc12` [IA-103, (S)—N-(3-(3-(9H-purin-6-yl)pyridin-2-ylamino)-4-methylphenyl)-2-(3-(trifluoromethyl)piperidin-1-yl)acetamide] was tested, and the GI50 was < 20 nM.
For `Cc1nc(-c2cccnc2Nc2cc(NC(=O)c3cc(C(F)(F)F)ccn3)ccc2C)c2nc[nH]c2n1` [IA-150, N-(4-methyl-3-((3-(2-methyl-9H-purin-6-yl)pyridin-2-yl)amino)phenyl)-4-(trifluoromethyl)picolinamide], the GI50 was ≥ 500 nM.
For `Cc1ccc(NC(=O)c2cc(C(F)(F)F)ccn2)cc1Nc1nnccc1-c1ncnc2[nH]cnc12` [IA-121, N-(3-((4-(9H-purin-6-yl)pyridazin-3-yl)amino)-4-methylphenyl)-4-(trifluoromethyl)picolinamide], the GI50 was ≥ 500 nM.
`Cc1ccc(C(=O)Nc2cc(C(C)(C)C)nn2C2CC2)cc1Nc1ncccc1-c1ncnc2[nH]cnc12` [Compound I-79, 3-((3-(9H-purin-6-yl)pyridin-2-yl)amino)-N-(3-(tert-butyl)-1-cyclopropyl-1H-pyrazol-5-yl)-4-methylbenzamide] was tested, and the GI50 was 100 to 500 nM.
`Cc1ccc(NC(=O)c2ccc(Cl)c(C3(C#N)CC3)c2)cc1Nc1ncccc1-c1ncnc2[nH]cnc12` [Compound I-38, N-(3-((3-(9H-purin-6-yl)pyridin-2-yl)amino)-4-methylphenyl)-4-chloro-3-(1-cyanocyclopropyl)benzamide] showed a GI50 of 20 to 100 nM.
With `Cc1ccc(NC(=O)CN2CCN3CCC2C3)cc1Nc1ncccc1-c1ncnc2[nH]cnc12` (centres unmarked) [Compound I-89, N-(3-((3-(9H-purin-6-yl)pyridin-2-yl)amino)-4-methylphenyl)-2-(1,4-diazabicyclo[3.2.1]octan-4-yl)acetamide] the GI50 was ≥ 500 nM.
For `Cc1ccc(NC(=O)c2ccc3c(c2)OCO3)cc1Nc1ncccc1-c1ncnc2[nH]cnc12` [Compound I-74, N-(3-((3-(9H-purin-6-yl)pyridin-2-yl)amino)-4-methylphenyl)benzo[d][1,3]dioxole-5-carboxamide], the GI50 was 20 to 100 nM.
With `Cc1ccc(NC(=O)c2cc(C(F)(F)F)c(OCCO)cn2)cc1Nc1ncccc1-c1ncnc2[nH]cnc12` [IA-104, N-(3-(3-(9H-purin-6-yl)pyridin-2-ylamino)-4-methylphenyl)-5-(2-hydroxyethoxy)-4-(trifluoromethyl)picolinamide] the GI50 was < 20 nM.
Compound `Cc1ncc(C(=O)Nc2cccc(C(F)(F)F)c2)cc1Nc1ncccc1-c1ncnc2[nH]cnc12` [Compound I-52, 5-((3-(9H-purin-6-yl)pyridin-2-yl)amino)-6-methyl-N-(3-(trifluoromethyl)phenyl)nicotinamide] has a GI50 of 20 to 100 nM.
For `O=C(Nc1ccc(Cl)c(Nc2ncccc2-c2ncnc3[nH]cnc23)c1)c1cc(C(F)(F)F)ccn1` [Compound I-21, N-(3-(3-(9H-purin-6-yl)pyridin-2-ylamino)-4-chlorophenyl)-4-(trifluoromethyl)picolinamide], the GI50 was 20 to 100 nM.
`COc1c(C(F)(F)F)ccnc1C(=O)Nc1ccc(C)c(Nc2ncccc2-c2ncnc3[nH]cnc23)c1` [IA-101, N-(3-(3-(9H-purin-6-yl)pyridin-2-ylamino)-4-methylphenyl)-3-methoxy-4-(trifluoromethyl)picolinamide] was tested, and the GI50 was < 20 nM.
In the case of `Cc1ccc(NC(=O)c2ccc(Cl)c(Cl)c2)cc1Nc1ncccc1-c1ncnc2[nH]cnc12` [Compound I-49, N-(3-(3-(9H-purin-6-yl)pyridin-2-ylamino)-4-methylphenyl)-3,4-dichlorobenzamide], the GI50 is reported as < 20 nM.
With `Cc1nc2c(-c3cccnc3Nc3cc(NC(=O)c4cc(C(O)C(F)(F)F)ccn4)ccc3C)ncnc2[nH]1` (centres unmarked) [IA-130, N-(4-methyl-3-((3-(8-methyl-9H-purin-6-yl)pyridin-2-yl)amino)phenyl)-4-(2,2,2-trifluoro-1-hydroxyethyl)picolinamide] the GI50 was < 20 nM.
For `Cc1c(F)cc(NC(=O)c2ccnc(C3(F)CC3)c2)cc1Nc1ncccc1-c1ncnc2[nH]cnc12` [Compound I-72, N-(3-((3-(9H-purin-6-yl)pyridin-2-yl)amino)-5-fluoro-4-methylphenyl)-2-(1-fluorocyclopropyl)isonicotinamide], the GI50 was < 20 nM.
In the case of `Cc1ccc(NC(=O)CN2CCCNCC2)cc1Nc1ncccc1-c1ncnc2[nH]cnc12` [IA-134, N-(3-((3-(9H-purin-6-yl)pyridin-2-yl)amino)-4-methylphenyl)-2-(1,4-diazepan-1-yl)acetamide], the GI50 is reported as ≥ 500 nM.
For `Cc1ccc(NC(=O)CN2CC[C@H](C(F)(F)F)C2)cc1Nc1ncccc1-c1ncnc2[nH]cnc12` [IA-109, (S)—N-(3-((3-(9H-purin-6-yl)pyridin-2-yl)amino)-4-methylphenyl)-2-(3-(trifluoromethyl)pyrrolidin-1-yl)acetamide], the GI50 was < 20 nM.
In the case of `Cc1ccc(NC(=O)c2cc(C(F)(F)F)c(C)cn2)cc1Nc1ncccc1-c1ncnc2[nH]cnc12` [IA-114, N-(3-((3-(9H-purin-6-yl)pyridin-2-yl)amino)-4-methylphenyl)-5-methyl-4-(trifluoromethyl)picolinamide], the GI50 is reported as < 20 nM.
`Cc1ccc(NC(=O)CN2CCCC(C(F)(F)F)C2)cc1Nc1ncccc1-c1ncnc2[nH]cnc12` (centres unmarked) [Compound I-77, N-(3-((3-(9H-purin-6-yl)pyridin-2-yl)amino)-4-methylphenyl)-2-(3-(trifluoromethyl)piperidin-1-yl)acetamide] was tested, and the GI50 was < 20 nM.
Compound `Cc1ccc(NC(=O)C[C@@H]2CCO[C@@H](C(F)(F)F)C2)cc1Nc1ncccc1-c1ncnc2[nH]cnc12` (single isomer, unassigned) [IA-148] has a GI50 of 20 to 100 nM.
For `Cc1ccc(C(=O)Nc2ccc(C)c(Nc3ncccc3-c3ncnc4[nH]cnc34)c2)cc1` [Compound I-27, N-(3-((3-(9H-purin-6-yl)pyridin-2-yl)amino)-4-methylphenyl)-4-methylbenzamide], the GI50 was 20 to 100 nM.
With `Cc1ccc(NC(=O)c2cc(C(F)(F)F)c(OCCN(C)C)cn2)cc1Nc1ncccc1-c1ncnc2[nH]cnc12` [IA-97, N-(3-(3-(9H-purin-6-yl)pyridin-2-ylamino)-4-methylphenyl)-5-(2-(dimethylamino)ethoxy)-4-(trifluoromethyl)picolinamide] the GI50 was < 20 nM.
With `Cc1ccc(NC(=O)CN2CCCN(C)CC2)cc1Nc1ncccc1-c1ncnc2[nH]cnc12` [IA-135, N-(3-((3-(9H-purin-6-yl)pyridin-2-yl)amino)-4-methylphenyl)-2-(4-methyl-1,4-diazepan-1-yl)acetamide] the GI50 was ≥ 500 nM.
In the case of `Cc1ccc(NC(=O)c2ccc(C#N)cc2)cc1Nc1ncccc1-c1ncnc2[nH]cnc12` [Compound I-26, N-(3-((3-(9H-purin-6-yl)pyridin-2-yl)amino)-4-methylphenyl)-4-cyanobenzamide], the GI50 is reported as 100 to 500 nM.
In the case of `C#Cc1ccc(C(=O)Nc2ccc(C)c(Nc3ncccc3-c3ncnc4[nH]cnc34)c2)cc1` [Compound I-31, N-(3-((3-(9H-purin-6-yl)pyridin-2-yl)amino)-4-methylphenyl)-4-ethynylbenzamide], the GI50 is reported as < 20 nM.
In the case of `Cc1ccc(C(=O)Nc2cccc(C(F)(F)F)c2)cc1Nc1ncccc1-c1ncnc2[nH]cnc12` [II-3, 3-((3-(9H-Purin-6-yl)pyridin-2-yl)amino)-4-methyl-N-(3-(trifluoromethyl)phenyl)benzamide], the GI50 is reported as < 20 nM.
Compound `N#Cc1cc(C(=O)Nc2ccc(F)c(Nc3ncccc3-c3ncnc4[nH]cnc34)c2)ccc1Cl` [Compound I-50, N-(3-(3-(9H-purin-6-yl)pyridin-2-ylamino)-4-fluorophenyl)-4-chloro-3-cyanobenzamide] has a GI50 of 20 to 100 nM.
